From patent publication US8084470B2, “Substituted nicotinamide compounds and uses thereof” (Gruenenthal GmbH, priority 2007, dated 2011)

Molecular target: hKCNQ2/3 (Homo sapiens, UniProt O43525+O43526)
Assay: Fluorescence assay using a voltage sensitive dye
Format: cell-based
Parameters: expressed in transfected cells; host or cells: CHO-K1
Description: Biological Data Fluorescence Assay Using a Voltage Sensitive Dye
Human CHO-K1 cells expressing KCNQ2/3 channels are cultivated adherently at 37° C., 5% CO2 and 95% humidity in cell culture bottles (e.g. 80 cm^2 TC flasks, Nunc) with DMEM-high glucose (Sigma Aldrich, D7777) including 10% FCS (PAN Biotech, e.g. 3302-P270521) or alternatively with MEM Alpha Medium (1×, liquid, Invitrogen, #22571), 10% fetal calf serum (FCS) (Invitrogen, #10270-106, heat-inactivated) and the necessary selection antibiotics.
Before being distributed for the measurements, the cells are washed with a 1×DPBS buffer without Ca^2+/Mg^2+ (e.g. Invitrogen, #14190-094) and detached from the bottom of the culture vessel by means of Accutase (PAA Laboratories, #L11-007) (incubation with Accutase for 15 min at 37° C.). The cell count then present is determined using a CASY™ cell counter (TCC model, Schärfe System) in order subsequently to apply, according to density optimization for the individual cell line, 20,000-30,000 cells/well/100 μl of the described nutrient medium to 96-well measuring plates of the Corning™ CellBIND™ type (Flat Clear Bottom Black Polystyrene Microplates, #3340). Incubation is then carried out for one hour at room temperature, without gassing or adjusting the humidity, followed by incubation for 24 hours at 37° C., 5% CO2 and 95% humidity.
The voltage-sensitive fluorescent dye from the Membrane Potential Assay Kit (Red™ Bulk format part R8123 for FLIPR, MDS Analytical Technologies™) is prepared by dissolving the contents of a vessel Membrane Potential Assay Kit Red Component A in 200 ml of extracellular buffer (ES buffer, 120 mM NaCl, 1 mM KCl, 10 mM HEPES, 2 mM CaCl2, 2 mM MgCl2, 10 mM glucose; pH 7.4). After removal of the nutrient medium, the cells are washed with 200 μl of ES buffer, then covered with a layer of 100 μl of the dye solution prepared above and incubated for 45 min at room temperature with the exclusion of light.
The fluorescence measurements are carried out with a BMG Labtech FLUOstar™ or BMG Labtech NOVOstar™ or BMG Labtech POLARstar™ instrument (525 nm excitation, 560 nm emission, Bottom Read mode). After incubation of the dye, 50 μl of the test substances in the desired concentrations, or 50 μl of ES buffer for control purposes, are introduced into separate cavities of the measuring plate and incubated for 30 min at room temperature while being shielded from light. The fluorescence intensity of the dye is then measured for 5 min and the fluorescence value F1 of each well is thus determined at a given, constant time. 15 μL of a 100 mM KCl solution ([…]) are then added to each well. The change in fluorescence is subsequently measured until all the relevant measured values have been obtained (mainly 5-30 min). At a given time after KCl application, a fluorescence value F2 is determined, in this case at the time of the fluorescence peak.
For calculation, the fluorescence intensity F2 is compared with the fluorescence intensity F1, and the agonistic activity of the target compound on the potassium channel is determined therefrom. F2 and F1 are calculated as follows:
[formula] In order to determine whether a substance has an agonistic activity,
[formula] for example, can be compared with
[formula] of control cells.
[formula] is determined by adding to the reaction batch only the buffer solution instead of the substance to be tested, determining the value F1K of the fluorescence intensity, adding the potassium ions as described above and measuring a value F2K of the fluorescence intensity. Then F2K and F1K are calculated as follows:
[formula] A substance has an agonistic activity on the potassium channel when
[formula] is greater than
[formula] Independently of the comparison of
[formula] it is also possible to conclude that a target compound has agonistic activity if an increase in
[formula] is to be observed as the dosage of the target compound increases. […]

EC50 [nM] | SMILES
1170 | O=C(NCc1ccccc1F)c1cccnc1SCCS(=O)(=O)c1ccccc1 [Example 11, N-(2-fluorobenzyl)-2-(2-(phenylsulfonyl)ethylthio)nicotinamide]
2390 | Cc1ccc(S(=O)(=O)CCSc2ncccc2C(=O)NCc2cc(F)cc(F)c2)cc1 [Example 41, N-(3,5-difluorobenzyl)-2-(2-tosylethylthio)nicotinamide]
1280 | O=C(NCc1cc(F)cc(F)c1)c1cccnc1SCCS(=O)(=O)c1ccccc1 [Example 8, N-(3,5-difluorobenzyl)-2-(2-(phenylsulfonyl)ethylthio)nicotinamide]
1800 | O=C(NCc1ccc(F)c(F)c1)c1cccnc1SCCS(=O)(=O)c1ccccc1 [Example 12, N-(3,4-difluorobenzyl)-2-(2-(phenylsulfonyl)ethylthio)nicotinamide]
1280 | O=C(NCc1cccc(Cl)c1)c1cccnc1SCCS(=O)(=O)c1ccccc1 [Example 25, N-(3-chlorobenzyl)-2-(2-(phenylsulfonyl)ethylthio)nicotinamide]
1270 | O=C(NCc1ccc(Cl)c(Cl)c1)c1cccnc1SCCS(=O)(=O)c1ccccc1 [Example 19, N-(3,4-dichlorobenzyl)-2-(2-(phenylsulfonyl)ethylthio)nicotinamide]
75 | O=C(NCc1cccs1)c1cccnc1SCCSc1ccccc1 [Example 109, 2-[2-(phenylthio)ethylthio]-N-(2-thienylmethyl)-nicotinamide]
6520 | COc1ccc(CNC(=O)c2cccnc2SCCS(=O)(=O)c2ccccc2)cc1 [Example 17, N-(4-methoxybenzyl)-2-(2-(phenylsulfonyl)ethylthio)nicotinamide]
1970 | Cc1ccc(S(=O)(=O)CCSc2ncccc2C(=O)NCc2ccccc2F)cc1 [Example 43, N-(2-fluorobenzyl)-2-(2-tosylethylthio)nicotinamide]
5700 | CC(NC(=O)c1cccnc1SCCS(=O)(=O)c1ccccc1)c1cccc(C(F)(F)F)c1 (centres unmarked) [Example 57, 2-(2-(phenylsulfonyl)ethylthio)-N-(1-(3-(trifluoromethyl)phenyl)ethyl)-nicotinamide]
168 | Cc1cccc(SCCSc2ncccc2C(=O)NCc2cccs2)c1 [Example 105, 2-[2-(m-tolylthio)ethylthio]-N-(2-thienylmethyl)-nicotinamide]
503 | O=C(NCc1cccs1)c1cccnc1SCCS(=O)(=O)c1ccc(F)cc1 [Example 100, 2-[2-(4-fluorophenyl)sulfonylethylthio]-N-(2-thienylmethyl)-nicotinamide]
2230 | Cc1ccc(S(=O)(=O)CCSc2ncccc2C(=O)NCc2cccc(C)c2)cc1 [Example 44, N-(3-methylbenzyl)-2-(2-tosylethylthio)nicotinamide]
4120 | Cc1ccc(S(=O)(=O)CCSc2ncccc2C(=O)NCc2cccc(Cl)c2)cc1 [Example 51, N-(3-chlorobenzyl)-2-(2-tosylethylthio)nicotinamide]
4390 | O=C(NCc1ccco1)c1cccnc1SCCS(=O)(=O)c1ccccc1 [Example 62, N-(furan-2-ylmethyl)-2-(2-(phenylsulfonyl)ethylthio)nicotinamide]
197 | O=C(NCc1cccs1)c1cccnc1SCCS(=O)(=O)c1ccc(C(F)(F)F)cc1 [Example 102, N-(2-thienylmethyl)-2-[2-[4-(trifluoromethyl)phenyl]sulfonylethylthio]-nicotinamide]

EC50 [nM] | SMILES
187 | O=C(NCc1cccs1)c1cccnc1SCCS(=O)(=O)c1cccc(F)c1 [Example 106, 2-[2-(3-fluorophenyl)sulfonylethylthio]-N-(2-thienylmethyl)-nicotinamide]
1280 | O=C(NCc1ccc(F)cc1)c1cccnc1SCCS(=O)(=O)c1ccccc1 [Example 20, N-(4-fluorobenzyl)-2-(2-(phenylsulfonyl)ethylthio)nicotinamide]
6090 | Cc1ccc(S(=O)(=O)CCSc2ncccc2C(=O)NCc2ccco2)cc1 [Example 39, N-(furan-2-ylmethyl)-2-(2-tosylethylthio)nicotinamide]
2480 | O=C(NCc1cccc(F)c1)c1cccnc1SCCS(=O)(=O)c1ccccc1 [Example 15, N-(3-fluorobenzyl)-2-(2-(phenylsulfonyl)ethylthio)nicotinamide]
1820 | Cc1ccc(S(=O)(=O)CCSc2ncccc2C(=O)NCc2cccc(C(F)(F)F)c2)cc1 [Example 52, 2-(2-tosylethylthio)-N-(3-(trifluoromethyl)benzyl)nicotinamide]
1860 | Cc1ccc(CNC(=O)c2cccnc2SCCS(=O)(=O)c2ccccc2)cc1 [Example 5, N-(4-methylbenzyl)-2-(2-(phenylsulfonyl)ethylthio)-nicotinamide]
880 | O=C(NCc1ccc(SC(F)(F)F)cc1)c1cccnc1SCCS(=O)(=O)c1ccccc1 [Example 64, 2-(2-(phenylsulfonyl)ethylthio)-N-(4-(trifluoromethylthio)benzyl)-nicotinamide]
1400 | CN(Cc1cccc(Br)c1)C(=O)c1cccnc1SCCS(=O)(=O)c1ccccc1 [Example 13, N-(3-bromobenzyl)-N-methyl-2-(2-(phenylsulfonyl)ethylthio)nicotinamide]
16500 | CN(Cc1ccccc1)C(=O)c1cccnc1SCCS(=O)(=O)c1ccccc1 [Example 55, N-benzyl-N-methyl-2-(2-(phenylsulfonyl)ethylthio)nicotinamide]
7600 | Cc1ccc(S(=O)(=O)CCSc2ncccc2C(=O)NCc2ccc(F)cc2)cc1 [Example 49, N-(4-fluorobenzyl)-2-(2-tosylethylthio)nicotinamide]
234 | O=C(NCc1cccs1)c1cccnc1SCCS(=O)(=O)c1ccc(Cl)cc1 [Example 99, 2-[2-(4-chlorophenyl)sulfonylethylthio]-N-(2-thienylmethyl)-nicotinamide]
4110 | Cc1ccc(S(=O)(=O)CCSc2ncccc2C(=O)NCc2cccs2)cc1 [Example 36, N-(thiophen-2-ylmethyl)-2-(2-tosylethylthio)nicotinamide]
2140 | Cc1ccc(S(=O)(=O)CCSc2ncccc2C(=O)NCc2ccc(F)c(F)c2)cc1 [Example 45, N-(3,4-difluorobenzyl)-2-(2-tosylethylthio)nicotinamide]
1420 | CC(C)(C)CCNC(=O)c1cccnc1SCCS(=O)(=O)c1ccccc1 [Example 107, 2-[2-(benzenesulfonyl)ethylthio]-N-(3,3-dimethylbutyl)-nicotinamide]
2340 | O=C(NCc1ccccc1)c1cccnc1SCCS(=O)(=O)c1ccccc1 [Example 54, N-benzyl-2-(2-(phenylsulfonyl)ethylthio)nicotinamide]
9590 | CC(C)(C)CNC(=O)c1cccnc1SCCS(=O)(=O)c1ccccc1 [Example 60, N-(neopentyl)-2-(2-(phenylsulfonyl)ethylthio)nicotinamide]
